Reference: patent US20090227600A1, “4-(PYRAZINE-2-YL) -PYRROLIDINE -2-CARBOXYLIC ACID COMPOUNDS AND DERIVATIVES THEREOF AS HEPATITIS C VIRUS INHIBITORS” (priority 2004, published 2009)

Columns and labels:
[1] = test system: Huh-7 HCV replicon cells (genotype 1a); assay: Replicon ELISA cell based assay, genotype 1a; design: species or system HCV genotype 1a; conditions: Hepatitis C virus, Huh-7 genotype 1a replicon, 72 hours
Procedure: 100 μL of medium containing 10% FCS were added to each well of clear, flat-bottomed 96 well microplates, excepting wells in the top row. Test compound was diluted in assay medium to twice the final required starting concentration from a 40 mM stock solution in DMSO. 200 μL of the starting dilution were introduced into two wells each in the top row and doubling dilutions made down the plate by the sequential transfer of 100 μL aliquots with thorough mixing in the wells; the final 100 μL were discarded. The two bottom rows were not used for compound dilutions. Huh-7 HCV replicon cell monolayers nearing confluency were stripped from growth flasks with versene-trypsin solution and the cells were resuspended in assay medium at either 2×10^5 cells/mL (sub-line 5-15; genotype 1b; Lohmann, V., Komer, F., Koch, J-O., Herian, U., Thielmann, L. And Bartenschlager, R., 1999, Science, 285, pp 110-113) or at 3×10^5 cells/mL (genotype 1a; Gu, B., Gates, A. T., Isken, O., Behrens, S. E. and Sarisky, R. T., J. Virol., 2003, 77, 5352-5359). 100 μL of cell suspension were added to all wells and the plates incubated at 37° C. for 72 hours in a 5% CO2 atmosphere.
Following incubation, the assay medium was aspirated from the plates. The cell sheets were washed by gentle immersion in phosphate buffered saline (PBS), which was then aspirated off, and fixed with acetone:methanol (1:1) for 5 minutes. Following a further wash with PBS, 100 μL of ELISA diluent (PBS+0.05% v/v Tween 20+2% w/v skimmed milk powder) were added to all wells and the plates incubated at 37° C. for 30 minutes on an orbital platform. The diluent was removed and each well then received 50 μL of a 1/200 dilution of anti-HCV specific, murine, monoclonal antibody (either Virostat #1872 or #1877), except for wells in one of the compound-free control rows which received diluent alone to act as negative controls. The plates were incubated at 37° C. for 2 hours and washed 3 times with PBS/0.05% Tween 20, then 50 μL of horseradish peroxidase conjugated, anti-mouse, rabbit polyclonal serum (Dako #P0260), diluted 1/1000, were added to all wells. The plates were incubated for a further hour, the antibody removed and the cell sheets washed 5 times with PBS/Tween and blotted dry. The assay was developed by the addition of 50 μL of ortho-phenylenediamine/peroxidase substrate in urea/citrate buffer (SigmaFast, Sigma #P-9187) to each well, and colour allowed to develop for up to 15 minutes. The reaction was stopped by the addition of 25 μL per well of 2 M sulphuric acid and the plates were read at 490 nm on a Fluostar Optima spectrophotometer.
The substrate solution was removed and the plates were washed in tap water, blotted dry and the cells stained with 5% carbol fuchsin in water for 30 minutes. The stain was discarded and the cell sheets washed, dried and examined microscopically to assess cytotoxicity.
The absorbance values from all compound-free wells that had received both primary and secondary antibodies were averaged to obtain a positive control value. The mean absorbance value from the compound-free wells that had not received the primary antibody was used to provide the negative (background) control value. The readings from the duplicate wells at each compound concentration were averaged and, after the subtraction of the mean background from all values, were expressed as a percentage of the positive control signal. The quantifiable and specific reduction of expressed protein detected by the ELISA in the presence of a drug can be used as a measure of replicon inhibition. GraFit software was used to plot the curve of percentage inhibition against compound concentration and derive the 50% inhibitory concentration (IC50) for the compound.

[2] = biological target: T1, HCV RNA Polymerase, recombinant full-length NS5B, genotype 1b (Hepatitis C virus genotype 1b, UniProt Q9WMX2); assay: In vitro HCV RNA-dependent RNA polymerase inhibition assay, genotype 1b full-length enzyme; format: biochemical, HCV genotype 1b; conditions: genotype 1b full-length NS5B enzyme
T1 construct: Recombinant full-length NS5B; made in house
Procedure: Incorporation of [^33P]-GMP into RNA was followed by absorption of the biotin labelled RNA polymer by streptavidin containing SPA beads. A synthetic template consisting of biotinylated 13mer-oligoG hybridised to polyrC was used as a homopolymer substrate.
b) Genotype 1b Full-Length Enzyme
Reaction Conditions were 0.5 μM [^33P]-GTP (20 Ci/mMol), 1 mM Dithiothreitol, 20 mM MgCl2, 5 mM MnCl2, 20 mM Tris-HCl, pH7.5, 1.6 μg/mL polyC/0.256 μM biotinylated oligoG13, 10% glycerol, 0.01% NP-40, 0.2 u/μL RNasin and 50 mM NaCl.
HCV RNA Polymerase (Recombinant full-length NS5B (Lohmann et al, J. Virol. 71 (11), 1997, 8416. ‘Biochemical properties of hepatitis C virus NS5B RNA-dependent RNA polymerase and identification of amino acid sequence motifs essential for enzymatic activity’) expressed in baculovirus and purified to homogeneity) was added to 4 nM final concentration.
5× concentrated assay buffer mix was prepared using 1M MnCl2 (0.25 mL), glycerol (2.5 mL), 10% NP-40 (0.025 mL) and Water (7.225 mL), Total 10 mL.
2× concentrated enzyme buffer contained 1M-Tris-HCl, pH7.5 (0.4 mL), 5M NaCl (0.2 mL), 1M-MgCl2 (0.4 mL), glycerol (1 mL), 10% NP-40 (10 μL), 1M DTT (20 μL) and water (7.97 mL), Total 10 mL.
Substrate Mix was prepared using 5× Concentrated assay Buffer mix (4 μL), [^33P]-GTP (10 μCi/μL, 0.02 μL), 25 μM GTP (0.4 μL), 40 u/μL RNasin (0.1 μL), 20 μg/mL polyrC/biotinylated-oligoG (1.6 μL), and Water (3.94 μL), Total 10 μL.
Enzyme Mix was prepared by adding 1 mg/ml full-length NS5B polymerase (1.5 μL) to 2.81 mL 2×-concentrated enzyme buffer.
The Assay was set up using compound (1 μL), Substrate Mix (10 μL), and Enzyme Mix (added last to start reaction) (10 μL), Total 21 μL.
The reaction was performed in a U-bottomed, white, 96-well plate. The reaction was mixed on a plate-shaker, after addition of the Enzyme, and incubated for 1 h at 22° C. After this time, the reaction was stopped by addition of 40 μL 1.875 mg/ml streptavidin SPA beads in 0.1 M EDTA. The beads were incubated with the reaction mixture for 1 h at 22° C. after which 120 μL 0.1 M EDTA in PBS was added. The plate was sealed, mixed centrifuged and incorporated radioactivity determined by counting in a Trilux (Wallac) or Topcount (Packard) Scintillation Counter.
After subtraction of background levels without enzyme, any reduction in the amount of radioactivity incorporated in the presence of a compound, compared to that in the absence, was taken as a measure of the level of inhibition. Ten concentrations of compounds were tested in three- or fivefold dilutions. From the counts, percentage of inhibition at highest concentration tested or IC50s for the compounds were calculated using GraFit 3, GraFit 4 or GraFit 5 (Erithacus Software Ltd.) software packages or a data evaluation macro for Excel based on XLFit Software (IDBS).

T1 sequence (Q9WMX2 2420-3010): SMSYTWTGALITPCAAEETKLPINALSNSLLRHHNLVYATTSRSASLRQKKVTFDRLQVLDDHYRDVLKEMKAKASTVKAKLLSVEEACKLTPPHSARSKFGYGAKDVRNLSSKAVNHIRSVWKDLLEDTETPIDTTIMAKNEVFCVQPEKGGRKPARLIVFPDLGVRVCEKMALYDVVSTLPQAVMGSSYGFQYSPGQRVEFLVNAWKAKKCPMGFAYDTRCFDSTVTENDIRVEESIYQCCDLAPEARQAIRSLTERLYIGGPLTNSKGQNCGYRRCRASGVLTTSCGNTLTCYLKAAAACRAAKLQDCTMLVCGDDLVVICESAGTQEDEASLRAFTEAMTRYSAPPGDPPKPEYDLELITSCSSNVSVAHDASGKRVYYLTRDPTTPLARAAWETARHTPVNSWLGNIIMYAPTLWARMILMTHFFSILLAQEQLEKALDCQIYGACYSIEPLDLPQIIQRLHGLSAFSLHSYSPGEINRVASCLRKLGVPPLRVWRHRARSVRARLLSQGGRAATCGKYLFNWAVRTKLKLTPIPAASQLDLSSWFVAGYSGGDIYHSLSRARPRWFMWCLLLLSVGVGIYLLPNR

## COc1cc(C(=O)N2[C@@H](c3nccs3)[C@@H](c3cnccn3)C[C@@]2(CC(C)C)C(=O)O)ccc1C(C)(C)C (racemic) [Compound A, rel-(2S,4S,5R)-2-Isobutyl-1-(4-tert-butyl-3-methoxybenzoyl)-4-(pyrazin-2-yl)-5-(1,3-thiazol-2-yl)pyrrolidine-2-carboxylic acid, reference compound]
[1]
  IC50: 10000 to 100000 nM
[2]
  IC50: 100 to 500 nM

## COc1cc(C(=O)N2[C@@H](c3nccs3)[C@@H](c3cnccn3)C[C@@]2(Cc2ccccn2)C(=O)O)ccc1C(C)(C)C (racemic) [Compound C, rel-(2R,4S,5R)-1-(4-tert-Butyl-3-methoxybenzoyl)-2-(pyridin-2-ylmethyl)-4-(pyrazin-2-yl)-5-(1,3-thiazol-2-yl)pyrrolidine-2-carboxylic acid, reference compound]
[1]
  IC50: 10000 to 100000 nM
[2]
  IC50: 100 to 500 nM

## COc1cc(C(=O)N2[C@@H](c3nccs3)[C@@H](c3cnccn3)C[C@@]2(Cc2c[nH]cn2)C(=O)O)ccc1C(C)(C)C (racemic) [Compound D, rel-(2R,4S,5R)-1-(4-tert-Butyl-3-methoxybenzoyl)-2-(1H-imidazol-4-yl-methyl)-4-(pyrazin-2-yl)-5-(1,3-thiazol-2-yl)-pyrrolidine-2-carboxylic acid, reference compound]
[1]
  IC50: > 100000 nM
[2]
  IC50: 100 to 500 nM

## COc1cc(C(=O)N2[C@@H](c3cncs3)[C@@H](c3cnccn3)C[C@@]2(CCSC)C(=O)O)ccc1C(C)(C)C (racemic) [Compound E, rel-(2R,4S,5R)-1-(4-tert-Butyl-3-methoxybenzoyl)-2-(2-(methylthio)ethyl)-4-(pyrazin-2-yl)-5-(1,3-thiazol-5-yl)-pyrrolidine-2-carboxylic acid, reference compound]
[1]
  IC50: 10000 to 100000 nM
[2]
  IC50: 100 to 500 nM

## COc1cc(C(=O)N2[C@@H](c3nccs3)[C@@H](c3cnccn3)C[C@@]2(CCS(C)(=O)=O)C(=O)O)ccc1C(C)(C)C (racemic) [Compound F, rel-(2R,4S,5R)-1-(4-tert-Butyl-3-methoxybenzoyl)-2-(2-(methylsulphonyl)ethyl)-4-pyrazin-2-yl-5-(1,3-thiazol-2-yl)-pyrrolidine-2-carboxylic acid, reference compound]
[1]
  IC50: > 100000 nM
[2]
  IC50: > 500 nM

## COc1cc(C(=O)N2[C@@H](c3nccs3)[C@@H](c3cnccn3)C[C@@]2(Cc2ccccc2)C(=O)O)ccc1C(C)(C)C (racemic) [Compound G, rel-(2R,4S,5R)-1-(4-tert-Butyl-3-methoxybenzoyl)-2-(phenylmethyl)-4-(pyrazin-2-yl)-5-(1,3-thiazol-2-yl)pyrrolidine-2-carboxylic acid, reference compound]
[1]
  IC50: 10000 to 100000 nM
[2]
  IC50: 100 to 500 nM

## COc1cc(C(=O)N2[C@@H](c3nccs3)[C@@H](c3cnccn3)C[C@@]2(Cc2cscn2)C(=O)O)ccc1C(C)(C)C (racemic) [Example 1, rel-(2R,4S,5R)-1-(3-Methoxy-4-tert-butylbenzoyl)-4-(pyrazin-2-yl)-2-(1,3-thiazol-4-ylmethyl)-5-(1,3-thiazol-2-yl)pyrrolidine-2-carboxylic acid]
[1]
  IC50: < 10000 nM
[2]
  IC50: < 100 nM

## COc1cc(C(=O)N2[C@@H](c3nccs3)[C@@H](c3cnccn3)C[C@@]2(Cc2nccs2)C(=O)O)ccc1C(C)(C)C (racemic) [Example 3, rel-(2R,4S,5R)-1-(3-Methoxy-4-tert-butylbenzoyl)-4-(pyrazin-2-yl)-2-(1,3-thiazol-2-ylmethyl)-5-(1,3-thiazol-2-yl)pyrrolidine-2-carboxylic acid]
[1]
  IC50: < 10000 nM
[2]
  IC50: < 100 nM

## COc1cc(C(=O)N2[C@@H](c3ncc(C)s3)[C@@H](c3cnccn3)C[C@@]2(Cc2ccsn2)C(=O)O)ccc1C(C)(C)C (racemic) [Example 5, rel-(2R,4S,5R)-1-(3-Methoxy-4-tert-butylbenzoyl)-5-(5-methyl-1,3-thiazol-2-yl)-4-(pyrazin-2-yl)-2-(1,2-thiazol-3-ylmethyl)pyrrolidine-2-carboxylic acid]
[1]
  IC50: < 10000 nM
[2]
  IC50: < 100 nM
